Test results reported in patent US20260035753A1, “METHODS OF DETERMINING BACTERIA AND MANUFACTURING A FIBROUS WEB AND TOOLS AND USES RELATED THERETO” (KEMIRA OYJ, priority 2020, published 2026).

Key:
Thermicanus [1] = assay: Microbe control test in recycled fiber pulp (white water + recycled packaging board), 24 h contact time; type: cell-based; details: after 24 h at +50° C.; NGS sequencing and total bacterial qPCR; control 3.2*10^7; performic acid 14 mg/l, monochloramine 15 mg/l, mixture in total 15 mg/l, mixture in total 8 mg/l + zinc 7 mg/l
Procedure: White water from a liner machine using recycled fiber was taken and dry, brown, recycled packaging board was homogenized with the water so that the final consistency of fibers was 2.0%. The pulp was divided into portions and biocides and enzyme inhibitor (zinc) were added into the bottles according to the Table 2. pH of the pulp at the beginning of the test was 7.75 and ORP +175 mV. After this the bottles were incubated at +50° C. for 24 hours. At 24 h pH and ORP were measured and samples for DNA analysis were collected. The amount of Thermicanus was quantified as described in examples 1 and 2.
Biocide and enzyme inhibitor treated samples had clearly higher pH and ORP than control sample. Said biocide and/or enzyme inhibitor treatments also decrease the amount of bacteria belonging to the family Thermicanaceae or genus Thermicanus: The control sample contained 3.2*10^7 Thermicanus cells/ml, and the treated samples>90% less, 1.2-2.2*10^6 cells/ml. Thus, in the treated samples both the physical conditions were better and the amount of Thermicanus was lower than in the control sample.

Thermicanus [2] = assay: Biocide trial on a paper machine using recycled fiber; Thermicanus quantified with specific qPCR
Procedure: The best primer sequences for a qPCR assay specific for Thermicanus were 5′-[…]-3′ (SEQ ID NO: 2) and 5′-[…]-3′ (SEQ ID NO: 3). Allowing maximum 2 mismatches, these primers detect no 16S rRNA gene of other bacterial genera. The length of the PCR product is 236 bp for Thermicanus aegyptius, the only Thermicanus species described thus far. Specific amplification (one peak in qPCR melt curve analysis) was produced from Thermicanus genomic DNA at annealing temperatures 59-63° C. in qPCR master mix with 2.2 mM Mg^2+ (50 mM salt) and SYBR Green.
Besides in silico verifications, the validity of the Thermicanus qPCR assay with the novel primers was verified with 16 board process DNA samples from RCF pulp and white water (FIG. 1). Samples were selected based on sequencing results to be taxonomically diverse, include wide range of Thermicanus, and include communities with close relatives of Thermicanus including Geobacillus (Bacillaceae). SYBR Green qPCR detection chemistry was used with hot-start qPCR mastermix on BioRad CFX96 cycler or thermal cycler, using annealing temperature of 61° C. for stringent hybridization. The Pearson correlation between the NGS and qPCR-derived Thermicanus abundance was 0.993, when total bacteria were quantified based on genomic DNA concentration (FIG. 1A), and 0.997, when total bacteria were quantified based on general bacterial qPCR (FIG. 1B). These very high correlations verify the specificity and validity of the novel Thermicanus qPCR primers for the quantification of Thermicanus in board process samples.
A biocide trial on a paper machine using recycled fiber was ran with monochloramine (MCA). Samples from stock storage and cloudy white water were taken 7 months and 1 day before starting the trial and 3 weeks after starting the MCA trial. The amount of Thermicanus was quantified with Thermicanaceae-specific qPCR as described in Example 3. MCA trial decreased Thermicanus densities in stock storage and white water by ≥99%.

| SMILES | Thermicanus, cells/ml (Thermicanus [1]) | Thermicanus, white water, cells/ml (Thermicanus [2]; cloudy white water, 3 weeks after start of MCA trial, before trial 2.7*10^8 (7 months) and 2.1*10^8 (1 day)) | decrease of Thermicanus densities (Thermicanus [2]; stock storage and white water, 3 weeks after start of MCA trial versus before trial) [%] | Thermicanus, stock storage, cells/ml (Thermicanus [2]; stock storage, 3 weeks after start of MCA trial, before trial 5.8*10^8 (7 months) and 3.9*10^8 (1 day)) |
| --- | --- | --- | --- | --- |
| O=COO [Performic acid] | 2.0*10^6 cells/ml | – | – | – |
| NCl [Monochloramine, monochloramine] | 1.2*10^6 cells/ml | 7.5*10^5 cells/ml | ≥ 99 | 3.8*10^6 cells/ml |
